The source of these data is US20240209005A1, “BICYCLIC HETEROARYL BORONATE DERIVATIVES AS ECTONUCLEOTIDE PYROPHOSPHATASE PHOSPHODIESTERASE 1 INHIBITORS” (RIBOSCIENCE LLC, priority 2021, published 2024).

By Ki is commonly meant a measure of affinity in units of concentration, obtained from inhibition or displacement.

The first test relates to HGS tumor model. Kind of test: Anti-tumor activity in HGS tumor model. The following applies: animals treated with 20/kg of compound, day 42 after inoculation. Type of test: in vivo.
Source text: […]
Compound `C=CC(=O)N1CCN(CCCn2c(=O)c(-c3c(Cl)c(OC)cc(OC)c3Cl)cc3cnc(NC)nc32)CC1` [8-(3-(4-acryloylpiperazin-1-yl)propyl)-6-(2,6-dichloro-3,5-dimethoxyphenyl)-2-(methylamino)pyrido[2,3-d]pyrimidin-7(8H)-one] came in with a tumor size of 55 mm3.

The target of a further test is T1, ENPP1 (Homo sapiens, UniProt P22413).
T1 sequence (P22413 1-925): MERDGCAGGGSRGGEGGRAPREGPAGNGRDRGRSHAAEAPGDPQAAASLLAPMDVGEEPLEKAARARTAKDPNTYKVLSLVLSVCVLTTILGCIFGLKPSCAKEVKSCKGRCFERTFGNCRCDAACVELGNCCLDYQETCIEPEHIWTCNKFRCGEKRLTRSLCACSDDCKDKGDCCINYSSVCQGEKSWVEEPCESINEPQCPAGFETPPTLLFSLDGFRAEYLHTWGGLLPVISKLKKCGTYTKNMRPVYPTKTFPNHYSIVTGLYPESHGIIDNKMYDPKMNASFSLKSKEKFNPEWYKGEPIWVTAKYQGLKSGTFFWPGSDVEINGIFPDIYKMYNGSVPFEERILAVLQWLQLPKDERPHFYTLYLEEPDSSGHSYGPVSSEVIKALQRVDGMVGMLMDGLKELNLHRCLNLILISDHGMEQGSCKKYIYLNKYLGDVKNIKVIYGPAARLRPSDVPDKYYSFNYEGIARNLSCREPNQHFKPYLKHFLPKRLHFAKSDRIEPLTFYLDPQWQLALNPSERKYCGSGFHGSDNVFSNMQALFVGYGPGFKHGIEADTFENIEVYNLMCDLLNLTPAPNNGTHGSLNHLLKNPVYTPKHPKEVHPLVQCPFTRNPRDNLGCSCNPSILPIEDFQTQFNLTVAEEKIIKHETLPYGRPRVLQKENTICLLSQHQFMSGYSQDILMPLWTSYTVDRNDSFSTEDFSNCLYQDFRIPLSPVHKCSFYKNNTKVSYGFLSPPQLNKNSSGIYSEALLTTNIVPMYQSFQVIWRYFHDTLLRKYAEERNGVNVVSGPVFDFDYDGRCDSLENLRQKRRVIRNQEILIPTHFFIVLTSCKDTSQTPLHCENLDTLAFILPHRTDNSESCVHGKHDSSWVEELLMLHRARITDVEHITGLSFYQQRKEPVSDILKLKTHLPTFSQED
Kind of test: Measurement of pNP-TMP hydrolysis by ENPP1. It is filed as biochemical. The following applies: purified ENPP1, pNP-TMP substrate 500 μM, KM 232 μM; Ki calculated from IC50 by Cheng-Prusoff. On the procedure:
p-Nitrophenyl thymidine 5′-monophosphate (pNP-TMP) is a synthesized substrate for ENPP1. The ENPP1 enzyme activity assay with pNP-TMP substrate was conducted as follows:
Incubation of ENPP1 with compounds was set at 25° C. for 10 min. […] For each compound dilution, wells with assay buffer (50 mM Tris-HCl, pH8.8, 250 mM NaCl, 0.1 mg/ml BSA, 1% DMSO) only but no ENPP1 were included as controls for subtraction of test compound derived absorbance at 405 nm.
Absorbance at 405 nm was recorded immediately in kinetic mode by PerkinElmer 2300 Enspire multimode plate reader.
For each inhibitor, the specific ENPP1 activity was calculated using the following equation: ENPP1 activity (pmol/min/g)=Adjusted Vmax (OD405 nm/min) X conversion factor (pmol/OD405 nm)/amount of enzyme (g)
Adjusted Vmax=V0×(Km+(S))/(S).
V0=(OD405 nm with ENPP1−OD405 nm ENPP1 blank)/minutes. OD405 nm was plotted, with blank subtracted, against time (minutes), the initial linear rate is V0. […]
The slope is the conversion factor. The percent ENPP1 activity for each sample was calculated using the following equation:
% enzyme activity=sample enzyme activity/MAX Activity×100%.
To determine the IC50 for each compound, compound concentration values and percent enzyme activity values were inserted into GraphPad Prism (GraphPad Prism version 7.0 for Windows, GraphPad Software, La Jolla California USA, www.graphpad.com), and Prism's Transform analysis was used to convert the x-axis values (compound concentration) to logarithms. A sigmoidal variable slope nonlinear regression analysis was performed using the following equation: Y=Bottom+(Top−Bottom)/(1+10^((LogIC50−X)*HillSlope)).
For `OB(O)c1ccc(CNc2nc(-c3ccccc3)nc3cn[nH]c23)cc1` [compound 28, 4-[([5-phenyl-1H-pyrazolo[4,3-d]pyrimidin-7-yl]amino)-methyl]phenylboronic acid], the Ki is under 1000 nM.

On to `Cn1cnc2ncnc(NCc3ccc(B(O)O)cc3)c21` [compound 19, 4-[[(7-methylpurin-6-yl)amino]methyl]phenylboronic acid], for which the Ki is under 100 nM. Turning to `CCC(=O)Nc1csc2c(NCc3ccc(B(O)O)cc3)ncnc12` [compound 3, 4-[([7-propanamidothieno[3,2-d]pyrimidin-4-yl]amino)-methyl]phenylboronic acid], the inhibition constant Ki was under 1000 nM. Still for that read-out and setting: the same measure for `Cc1nc(NCc2ccc(B(O)O)cc2)c2c(cnn2C)n1` [compound 5, 4-[([1,5-dimethylpyrazolo[4,3-d]pyrimidin-7-yl]amino)-methyl]phenylboronic acid]: under 1000 nM; for `OB(O)c1ccc(CNc2ncnc3nc[nH]c23)cc1` [compound 20, 4-[(7H-purin-6-ylamino)methyl]phenylboronic acid]: under 10000 nM.

Turning to `OB(O)c1ccc(CNc2ncnc3ccsc23)cc1` [compound 26, 4-([thieno[3,2-d]pyrimidin-4-ylamino]methyl)phenyl-boronic acid.], the Ki is under 100 nM. Same read-out and setting: the same measure for `Cn1ncc2nc(-c3ccccc3)nc(NCc3ccc(B(O)O)cc3)c21` [compound 29, 4-[([1-methyl-5-phenylpyrazolo[4,3-d]pyrimidin-7-yl]-amino)-methyl]phenylboronic acid]: under 1000 nM; for `CC(=O)Nc1c[nH]c2c(NCc3ccc(B(O)O)cc3)ncnc12` [compound 7, 4-[([7-acetamido-5H-pyrrolo[3,2-d]pyrimidin-4-yl]amino)-methyl]phenylboronic acid]: under 1000 nM.
